PubChem BioAssay AID1645848
Converted amounts (≈) assume the structure as drawn.

Conditions: buffer; pH 7.4; 6.0 h; 150.0 µM

Row | SMILES | solubility kinetic [µg/mL]
1 | Cc1c(CN(C)c2cc(C3CC(O)C3)nc(N)n2)[nH]c2ccccc12 (stereo not given) | > 50
2 | COc1cccc(CNc2ccc(S(=O)(=O)Nc3cnc4ccccc4c3)cc2)c1O | < 1
3 | COc1cccc(CNc2ccc(S(=O)(=O)Nc3cccs3)cc2)c1O | 11.6 (≈ 29.6 µM)
4 | O=C(Nc1ncc(Cc2ccc(C(F)(F)F)cc2)s1)c1cnc(-c2ccccc2)o1 | < 1
5 | N#Cc1ccc(S(=O)(=O)Nc2cnccc2C(=O)Nc2nc(-c3ccccc3)cs2)cc1 | 6.96 (≈ 15.1 µM)
6 | CN(C)[C@@H]1CCN(c2cccc(Nc3nn4c(=O)c5ccccc5nc4s3)c2)C1 | 18.1 (≈ 44.4 µM)
7 | Cc1cc(NC(=S)N2CCN(c3cccc(C(F)(F)F)c3)CC2)nc2ccccc12 | 4.33 (≈ 10.1 µM)
8 | Cc1nnc(-c2ccccc2C(C)C)nc1NCc1ccc(-c2cccnc2)cc1 | < 1
9 | O=c1cc(N2CCOCC2)oc2c1ccc1ccccc12 | 16.7 (≈ 59.5 µM)
10 | NC(=O)C1CCN(c2nc(-c3ccc4c(c3)OCO4)cs2)CC1 | > 49
11 | CCN(CC)S(=O)(=O)c1ccc(N2CCCC2)c(NS(=O)(=O)c2ccc(C)cc2)c1 | 4.02 (≈ 8.91 µM)
12 | CCCN1C(CC(C)C)=NS(=O)(=O)c2cc(NC(=O)c3cccs3)ccc21 | < 1
13 | O=C(Nc1ncnc2sc3c(c12)CCCCC3)c1ccco1 | 1.72 (≈ 5.49 µM)
14 | O=C1CCCC2=C1C1(CCSC1)N=C(Nc1nc3ccccc3o1)N2 (stereo not given) | < 1
15 | Cc1cc(F)ccc1S(=O)(=O)Nc1cnccc1C(=O)Nc1nc(-c2ccccc2)cs1 | 34.6 (≈ 73.9 µM)
16 | COc1cc2nccc(Oc3ccc(NC(=O)Nc4cc(C)on4)c(Cl)c3)c2cc1OC | < 1
17 | O=C(NCC1(c2nc(-c3ccccc3)cs2)CCOCC1)c1cccc(-c2noc(C(F)(F)F)n2)c1 | 4.96 (≈ 9.65 µM)
18 | Cc1sc(NC(=O)Cc2ccc3c(c2)OCO3)nc1-c1ccc2c(c1)CCN2C(=O)c1ccccc1 | < 1
19 | CCCc1oc2ccc(NS(=O)(=O)c3ccc(OC)cc3)cc2c1C(=O)OCC | < 1
20 | Fc1ccc(Nc2nc(-c3ccncc3)nc3ccccc23)cc1F | < 1
21 | O=[S+]([O-])(Nc1ccccc1)c1ccc(NCc2cccc(C(F)(F)F)c2Cl)cc1 | < 1
22 | Cc1cnc(-c2ccccc2C(C)C)nc1NCC1CN(c2cccnc2)C1 | 36.3 (≈ 97.2 µM)
23 | COC(=O)C1=C(C)NC(=O)CC1C(=O)Nc1ccc(Cl)cc1 (stereo not given) | 31.2 (≈ 96.8 µM)
24 | COc1ccc(CNC(=O)CCCn2nc(C)c3c(C)n(-c4ccc(C)cc4)nc3c2=O)cc1OC | > 48

Row | SMILES | solubility kinetic [µg/mL]
25 | CC(=O)Nc1nc(-c2ccc3c(c2)CCN3C(=O)c2ccccc2C)c(C)s1 | < 1
26 | Cc1ccccc1C(C(=O)NC1CCCC1)N(C(=O)Cn1cnc2ccccc21)c1cccc(F)c1 (stereo not given) | 12.2 (≈ 25.1 µM)
27 | CCS(=O)(=O)c1nc(-c2ccc(Cl)cc2)cc(C(F)(F)F)n1 | 8.53 (≈ 24.3 µM)
28 | COc1ccc(OC)c(-c2nnc3ccc(-c4ccc(OC)c(O[C@@H]5CCOC5)c4)nn23)c1 | > 66
29 | Cc1cc(C)c(C(=O)Nc2cccc([S+](=O)([O-])N3CCCCC3)c2)[nH]1 | < 1
30 | Cc1cc(C)cc(NS(=O)(=O)c2ccc3[nH]cc(C(=O)NCc4ccco4)c(=O)c3c2)c1 | 2.87 (≈ 6.35 µM)
31 | Cc1c(C)n(Cc2ccccc2)c2ccc(C(=O)OCCN(C)C)cc12 | 33 (≈ 94 µM)
32 | CSc1ncc(Cl)c(C(=O)Nc2c(C)cccc2C)n1 | 1.91 (≈ 6.19 µM)
33 | COc1ccc(-c2ccc3ncc4c(c3c2)n(-c2ccc(N3CCNCC3)c(C(F)(F)F)c2)c(=O)n4C)cn1 | < 1
34 | COc1ccc(C2Nc3ccccc3C(=O)N2Cc2ccco2)cc1COc1c(C)cc(NC(C)=O)cc1C (stereo not given) | 1.53 (≈ 2.92 µM)
35 | CC1CCN(S(=O)(=O)c2ccc3c(ccc(=O)n3CC(=O)NCc3ccc(Cl)cc3)c2)CC1 | < 1
36 | CC[C@H]1NC(=O)[C@@H](NC(=O)c2ncccc2O)[C@@H](C)OC(=O)[C@H](c2ccccc2)NC(=O)[C@@H]2CC(=O)CCN2C(=O)[C@H](Cc2ccccc2)N(C)C(=O)[C@@H]2CCCN2C1=O | > 100
37 | CCc1ccc(NC(=O)c2cc3ncccn3n2)cc1 | 6.75 (≈ 25.3 µM)
38 | O=C(O)CCNc1cc(N2CCc3ccccc3CC2)nc(-c2cccnc2)n1 | > 58
39 | O=C(NC1CC1)c1ccc(CSCc2ccccc2Cl)o1 | > 47
40 | Cc1sc(NC(=O)Cc2ccc3c(c2)OCO3)nc1-c1ccc2c(c1)CCN2C(=O)c1ccccc1F | < 1
41 | CCOC(=O)c1ccc(N2C(=O)c3n[nH]c(-c4ccco4)c3C2c2ccc(C)cc2)cc1 (stereo not given) | 1.45 (≈ 3.38 µM)
42 | O=C(c1nc(-c2cccnc2)c2ccccn12)N1CCN(c2ncccn2)CC1 | 9.57 (≈ 24.8 µM)
43 | Cc1ccc(NC(=O)N2CCN(c3nc(N)nc4sc(-c5cccnc5)nc34)CC2)cc1 | < 1
44 | Cn1cc(-c2nc(Nc3ccc(F)c(F)c3)c3ccccc3n2)cn1 | < 1
45 | Cc1ccc2oc(NC3=NC(c4[nH]ncc4Cl)C4=C(CCCC4=O)N3)nc2c1 (stereo not given) | 1.35 (≈ 3.41 µM)
46 | N#Cc1cc(NC(=O)Nc2nnc(-c3ccncc3)s2)ccc1-c1cn[nH]c1 | < 1
47 | Cc1ccccc1C(=O)N1CCc2cc(-c3nc(NC(=O)Cc4ccc5ccccc5c4)sc3C)ccc21 | < 1
48 | O=C(NCCc1ccccc1)C1CCN(c2nc(-c3ccc(Br)cc3)cs2)CC1 | 4.49 (≈ 9.54 µM)

Row | SMILES | solubility kinetic [µg/mL]
49 | Cc1ccc(CCNC(=O)C2CCCN(C(=O)c3cc4sccc4n3C)C2)cc1 (stereo not given) | 3.09 (≈ 7.55 µM)
50 | Cn1nnnc1Sc1ncnc2sc(-c3ccccc3)cc12 | 0.088 (≈ 0.27 µM)
51 | Cc1cc(NS(=O)(=O)c2ccc3c(c2)CCC(=O)N3)ccc1F | > 49
52 | C[C@]1(CO)CN(c2cc(C(=O)Nc3ccc4c(c3)-c3c(c(C(N)=O)nn3-c3ccc(F)cc3)CC4)c(Cl)cn2)C[C@@]1(C)CO | 18.5 (≈ 29.8 µM)
53 | Fc1ccc(N2CCCN(CC3[C@H]4CNC[C@@H]34)CC2)cc1 (stereo not given in full) | > 43
54 | C=Cc1ccc(Cn2c(C(=O)O)c(CNCc3ccccc3)c3ccc(OC)cc32)cc1 | 5.42 (≈ 12.7 µM)
55 | Cc1nc(N2CCN(c3ccccn3)CC2)c2c(C)c(C(=O)Nc3ccc(F)cc3Cl)sc2n1 | < 1
56 | Cc1ccc(S(=O)(=O)Nc2cnccc2C(=O)NCCc2ccccc2)cc1 | > 58
57 | COc1ccc(NC(=O)c2c(C)cccc2C)cc1[S+](=O)([O-])N(C)C | 32.8 (≈ 90.4 µM)
58 | COc1cc(C2CC(=O)Nc3cc4c(cc32)OCCO4)cc(Br)c1OC (stereo not given) | < 1
59 | Cc1cc(C)nc(NC(=S)N2CCN(c3ccc(Cl)cc3[N+](=O)[O-])CC2)c1 | 3.08 (≈ 7.59 µM)
60 | COc1ccc(-c2c(-c3cc(C(=O)O)ccn3)ncn2C)cc1 | > 46
61 | Cc1noc(C)c1-c1ccc2ncnc(NC(C)c3ccccc3)c2c1 (stereo not given) | 12.6 (≈ 36.7 µM)
62 | O=C(NC1CCCN(c2cc(-c3ccc(F)cc3)[nH]n2)C1)c1ccc2ncccc2c1 (stereo not given) | 12.5 (≈ 30.2 µM)
63 | Fc1ccc(Nc2nc(-c3ccnc(C(F)(F)F)c3)nc3ccccc23)cc1F | < 1
64 | O=C(Nc1ccc(Cl)c(S(=O)(=O)N2CCOCC2)c1)c1ccc(S(=O)(=O)N2CCCCC2)cc1 | < 1
65 | O=[S+]([O-])(Nc1ccccc1)c1ccc(NCc2cccc(C(F)(F)F)c2F)cc1 | 1.11 (≈ 2.62 µM)
66 | Fc1cc(Nc2nc(-c3ccncc3)nc3ccccc23)ccc1-c1cccnc1 | < 1
67 | Cc1sc(NC(=O)Cc2ccc3c(c2)OCO3)nc1-c1ccc2c(c1)CCN2C(=O)C1CCCCC1 | < 1
68 | Cc1ccc(C)c(CN2CCC(CNC(=O)Nc3ccc(Br)cc3F)CC2)c1 | 27.9 (≈ 62.3 µM)
69 | CCCc1ccc(C(=O)NC(=O)c2ccccc2O)cc1 | 1.6 (≈ 5.65 µM)
70 | CCc1[nH]c2ccc(CNC(=O)Cc3cnc4c(C)cccn34)cc2c1C | 17.3 (≈ 47.9 µM)
71 | CCCN1CNc2c(c(=O)[nH]c(=S)n2Cc2ccc(OC)c(OC)c2)C1 | > 56
72 | Cn1cncc1[C@@](N)(c1ccc(Cl)cc1)c1ccc2c(c1)c(-c1cccc(Cl)c1)cc(=O)n2C | < 1

Row | SMILES | solubility kinetic [µg/mL]
73 | O=C(Nc1cccc(S(=O)(=O)C(F)(F)F)c1)c1ccccc1NC(=O)c1ccccc1OCC(F)(F)F | < 1
74 | C=CCON=C(C[C@H]1O[C@@H]2O[C@]3(C)CC[C@@H]4[C@H](C)CC[C@@H]([C@H]1C)[C@@]24OO3)[C@H]1O[C@@H]2O[C@]3(C)CC[C@H]4[C@H](C)CC[C@@H]([C@@H]1C)[C@@]24OO3 | 26.6 (≈ 42.1 µM)
75 | CCc1cccc(NS(=O)(=O)c2ccc3c(c2)CC(C)N3C(=O)C2CC2)c1 (stereo not given) | < 1
76 | O=C(Nc1ncc(Cc2ccc(C(F)(F)F)cc2)s1)c1cnc(-c2ccccc2)[nH]1 | < 1
77 | Cc1cc(NS(=O)(=O)c2ccc(C(=O)NCc3ccc(Cl)c(Cl)c3)cc2)no1 | > 65
78 | COc1cccc(C(=O)NCCSc2c(-c3ccc(F)cc3)[nH]c3ccccc23)c1OC | < 1
79 | C[S+](=O)([O-])c1ccc(-c2nc(C(=O)N3CCOCC3)n3ccccc23)cc1 | > 57
80 | COC(=O)c1ccc(Oc2nc3c(c(=O)n(C)c(=O)n3C)n2CCC(C)C)cc1 | < 1
81 | CNC(=O)c1cccc(-c2cnc(Nc3cccc(C(F)(F)F)c3)c3c2CCO3)c1 | < 1
82 | COc1ccc(Nc2ncnc3c2cnn3-c2ccc(C)cc2)cc1Cl | 0.075 (≈ 0.205 µM)
83 | CCOC(=O)[C@H]1O[C@@H]1C(=O)N[C@@H](CC(C)C)C(=O)NCCC(C)C | 24 (≈ 70.1 µM)
84 | O=C(NCc1ccco1)c1nc2nc(-c3cccs3)cc(C(F)(F)F)n2n1 | 4.51 (≈ 11.5 µM)
85 | Cc1cccc([C@H]2[C@@H]3C=CC[C@@H](C)[C@@H]3C(=O)N2Cc2ccccc2)c1 | < 1
86 | O=C(NC1CCCc2c1cnn2-c1ccc(F)cc1F)c1ccc(C2(C(F)(F)F)N=N2)cc1 (stereo not given) | < 1
87 | Nc1ncc(S(=O)(=O)N2CCOCC2)s1 | > 37
88 | CC(C)c1ccc(CC(=O)N2CCCc3ncc(C(=O)Nc4cccnc4)cc32)cc1 | 27.7 (≈ 66.9 µM)
89 | O=C(Nc1ccc([N+](=O)[O-])cc1Cl)c1cc(Cl)ccc1O | 1.14 (≈ 3.47 µM)
90 | CC(C)c1ccccc1-c1nc2c(c(NCc3ccc(-c4cccnc4)cc3)n1)CNC2 | 40.9 (≈ 97 µM)
91 | Cn1c(C(=O)NCCc2ccccn2)nc2nc(-c3ccccc3)c(Cl)cc21 | 1.11 (≈ 2.84 µM)
92 | O=[N+]([O-])c1ccc(CNc2ccc([S+](=O)([O-])Nc3nccs3)cc2)c(O)c1 | > 60
93 | COc1ccc(-n2nc(C3CCCN(CC4CCCCC4)C3)[nH]c2=O)cc1 (stereo not given) | > 37
94 | Cc1ccc(OCCn2c(CCNC(=O)N3CCCCC3)nc3ccccc32)cc1 | 9.07 (≈ 22.3 µM)
95 | Cc1ccnc(NC(=S)N2CCN(c3ccccc3C(F)(F)F)CC2)c1 | 8.07 (≈ 21.2 µM)
